Measured values from patent US20230210834A1, “RNA METHYLTRANSFERASE INHIBITOR, SCREENING METHOD THEREFOR, ANTI-CANCER AGENT EFFICACY ASSESSMENT MARKER, AND KIT FOR EFFECTIVELY PREDICTING FTSJ1 INHIBITOR” (National University Corporation Okayama University, priority 2019, published 2023).

Assays:
[1] = tested on: polyglutamine luciferase reporter; assay: Screening: polyglutamine luciferase reporter assay in NUGC3 cells (luminescence % of DMSO); format: cell-based, human; settings: NUGC3 cells, luminescence relative to DMSO; for Polyglutamine: concentration not given
Procedure: (§1) Human gastric cancer cell line NUGC3 was cultured in a DMEM medium (high glucose with L-glutamine and phenol red, produced by FUJIFILM Wako Pure Chemical Corporation) containing 10% fetal bovine serum (produced by Thermo Fisher Scientific Inc.) and penicillin-streptomycin (produced by FUJIFILM Wako Pure Chemical Corporation) (this medium is simply referred to below as “DMEM+10% FBS+1×P/S”). Then, the NUGC3 cells were seeded in a 60-mm culture dish (produced by BioLite) so that the cells were 80% confluent after 24 hours. Subsequently, 5 μg of a reporter plasmid and 15 μL of a lipofection reagent (transIT-LT1, produced by Mirus Bio LLC) were mixed in 500 μL of Opti-MEM medium (produced by Thermo Fisher Scientific, Inc.) to form a complex, which was added to the medium in which the NUGC3 cells were cultured in the 60-mm culture dish. For use as the reporter plasmid, 5 μg of a polyglutamine luciferase reporter was introduced (in the polyglutamine luciferase reporter, a Renilla luciferase expressed in the IRES was located as an internal standard downstream of the sequence of a firefly luciferase sequence to which polyglutamine was added). Alternatively, a YAP/TAZ activity reporter was used by simultaneously introducing 3 μg of 8×GTIIC plasmid and 2 μg of a Renilla luciferase reporter as an internal standard. After another 24 hours, the cells were exfoliated with a 0.05 w/v % trypsin-0.53 mmol/l EDTA-4Na solution (produced by FUJIFILM Wako Pure Chemical Corporation), and then seeded in a 96-well plate (produced by BioLite) so that the cells were 80% confluent after 24 hours. Twenty-four hours after seeding in the 96-well plate, the medium in each well was replaced with 100 μL of a medium (DMEM+10% FBS+an antibiotic) containing 10 μM or 5 μM of a compound for evaluation. After another 24 hours, the medium containing the compound was removed, and the 96-well plate was transferred on ice. Each well was washed with 100 μL of phosphate buffer (PBS, produced by FUJIFILM Wako Pure Chemical Corporation). Thereafter, 20 μL of Passive Lysis Buffer (1×) contained in a Dual-Luciferase Reporter Assay System (produced by Promega Corporation) was added. The plate was then gently shaken for 15 minutes at room temperature to lyse the cells. After confirming that the cells were lysed, 10 μL of the lysate was transferred from each well to each corresponding well of a white 96-well plate (produced by Greiner Bio-one). To each well of the white 96-well plate was added 100 μL of a mixture of a Luciferase Assay Buffer II and Luciferase Assay Substrate contained in the Dual-Luciferase Reporter Assay System (produced by Promega Corporation), whereby the luminescence of the firefly luciferase was induced, and the luminescence intensity was detected with a microluminometer (produced by Berthold Japan K.K.). Subsequently, 100 μL of a mixture of Stop & Glo Buffer and Stop & Glo Substrate contained in the Dual-Luciferase Reporter Assay System (produced by Promega Corporation) was added, whereby the luminescence of firefly luciferase was quenched while the luminescence of Renilla luciferase was induced, and the luminescence intensity was detected with a microluminometer (produced by Berthold Japan K.K.) in a manner similar to the above. The ratio of the luminescence intensity of the firefly luciferase and the luminescence intensity of the Renilla luciferase was calculated, and the luminescence intensity (%) of the wells containing each compound was calculated with the luminescence intensity of the well containing DMSO (dimethyl sulfoxide, used as a solvent for the compound liquids) taken as 100%. […] Unless otherwise specified, the measured values in the table represent the results obtained by evaluation with the addition of 10 μM of each compound for evaluation.

YAP/TAZ = assay: Screening: YAP/TAZ activity reporter (8xGTIIC plasmid) assay in NUGC3 cells (luminescence % of DMSO); format: cell-based, human; settings: NUGC3 cells, luminescence relative to DMSO; for 8×GTIIC: concentration not given
Procedure: as §1

[2] = polyglutamine luciferase reporter
[3] = YAP/TAZ activity reporter (8×GTIIC)

Compound | Polyglutamine [1, 2] [%] | 8×GTIIC (YAP/TAZ; [3]) [%] | Polyglutamine [1] [%] | 8×GTIIC (YAP/TAZ) [%] | also measured
O=S(=O)(CC1CCCCC1)c1ccc2ccccc2c1 [PVZF2012] | 33.76 | 34.08 | – | – | –
CC(C)c1cc(C(C)C)c(S(=O)(=O)CCc2ccccc2)c(C(C)C)c1 [PVZF2006] | 41.3 | 58.43 | – | – | –
O=S(=O)(CC1CCCC1)c1ccc(C2CCCCC2)cc1 [PVZF2064] | 64 | 75.47 | – | – | –
O=S(=O)(CC1CCCC1)c1ccc2ccccc2c1 [PVZF2010] | 33.13 | 24.49 | – | – | –
O=S(=O)(CCCC1CCCCC1)c1ccc(C2CCCCC2)cc1 [PVZF2071] | 63.89 | 70.27 | – | – | –
Cc1ccc(S(=O)(=O)CC2CCC(S(C)(=O)=O)CC2)cc1 (centres unmarked) [SA060] | 92.41 | 90.52 | – | – | –
Cc1ccccc1C1=CC(C2=CC3CCCCC3C=C2)=CC1 (centres unmarked) [PVZF0101] | – | – | – | – | activity at 5 µM ([1]; Homo sapiens, NUGC-3, 5 μM): 13%; activity at 10 µM ([1]; Homo sapiens, NUGC-3, 10 μM): 10%; activity at 5 µM (YAP/TAZ; Homo sapiens, NUGC-3, 5 μM, read-out: 8×GTIIC): 16.1%; activity at 10 µM (YAP/TAZ; Homo sapiens, NUGC-3, 10 μM, read-out: 8×GTIIC): 12.5%
Cc1cccc(S(=O)(=O)CC2CCC(C3CC3)CC2)c1 (centres unmarked) [SA054] | 109.1 | 83.34 | – | – | –
CCCCCCS(=O)(=O)c1ccccc1 [PVZF2047] | 48.95 | 63.56 | – | – | –
CC1(C)CC(CS(=O)(=O)c2ccc3ccccc3c2)CC(C)(C)C1 [PVZF2018] | 61.19 | 73.29 | – | – | –
CC(C)c1cc(C(C)C)c(S(=O)(=O)NCC2CCCNC2)c(C(C)C)c1 (centres unmarked) [PVZF2008] | 64.94 | 70.12 | – | – | –
CCc1ccccc1C1CC(c2ccc(C)cc2)=NC1S(=O)(=O)c1ccccc1C (centres unmarked) [PVZF0065] | – | – | 48.96 | 67.6 | –
O=S(=O)(CCc1ccccc1)c1ccccc1 [PVZF2050] | 49.43 | 39.57 | – | – | –
CC(=O)c1cccc(C2CC(c3ccc(C)cc3)=NC2S(=O)(=O)c2ccc(C)cc2)c1 (centres unmarked) [PVZF0095] | – | – | 47.01 | 66.76 | –
Cc1ccc(C2=NC(S(=O)(=O)c3ccccc3C)C(c3ccc(C)cc3)C2)cc1 (centres unmarked) [PVZF0064] | – | – | 58.28 | 93.3 | –
CCc1cc(C)c(S(=O)(=O)CC2CC(C)(C)CC(C)(C)C2)cc1C [SA010] | 59.61 | 64.43 | – | – | –
Cc1ccc(C2=NC(S(=O)(=O)c3ccccc3)C(c3ccc(C)cc3)C2)cc1 (centres unmarked) [PVZF0073] | – | – | 60.62 | 86.43 | –
CS(=O)(=O)C1CCC(CS(=O)(=O)c2ccc3c(c2)CCCC3)CC1 (centres unmarked) [SA046] | 75.23 | 83.81 | – | – | –
CCc1ccc(C2CC(c3ccc(C)cc3)=NC2S(=O)(=O)c2ccccc2)cc1 (centres unmarked) [PVZF0089] | – | – | 67.1 | 70.13 | –
Cc1ccc(C2=NC(S(=O)(=O)c3ccccc3C)C(c3cccc(C)c3)C2)cc1 (centres unmarked) [PVZF0062] | – | – | 54.91 | 73.79 | –
Cc1ccc(S(=O)(=O)CC2CCC(C3CC3)CC2)c(C)c1 (centres unmarked) [SA035] | 98.96 | 116.6 | – | – | –

Compound | Polyglutamine [1, 2] [%] | 8×GTIIC (YAP/TAZ; [3]) [%] | Polyglutamine [1] [%] | 8×GTIIC (YAP/TAZ) [%] | also measured
O=S(=O)(CC1CCCC1)c1ccc(-c2ccccc2)cc1 [PVZF2028] | 42.32 | 40.24 | – | – | –
Cc1cccc(S(=O)(=O)CC2CCC(C3CC3)CC2)c1 (centres unmarked) [SA041] | 88.82 | 87.17 | – | – | –
CCOc1cc(S(=O)(=O)C2CCC(NS(=O)(=O)c3ccccc3)CC2)ccc1COC (centres unmarked) [SA018] | 78.85 | 74.98 | – | – | –
CCc1ccc(C2=NC(S(=O)(=O)c3ccccc3)C(c3cccc(CC)c3CC)C2)c(CC)c1 (centres unmarked) [PVZF0054] | – | – | 56.4 | 49.48 | –
CCCc1ccc(S(=O)(=O)CC2CCC(C3CC3)CC2)cc1 (centres unmarked) [SA039] | 97.44 | 56.65 | – | – | –
CCc1ccc(C2CC(c3ccc(C)cc3)=NC2S(=O)(=O)c2ccc(C)cc2)cc1 (centres unmarked) [PVZF0092] | – | – | 48.91 | 54.44 | –
Cc1cccc(C)c1S(=O)(=O)CC1CCC(C2CC2)CC1 (centres unmarked) [SA036] | 71.57 | 57.59 | – | – | –
C=C(CCC)C1CCC(CS(=O)(=O)c2ccc(C)cc2C(C)(C)C)CC1 (centres unmarked) [SA069] | 76.83 | 67.61 | – | – | –
Cc1ccc(C2=NC(S(C)(=O)=O)C(c3ccc(C(C)C)cc3)C2)cc1 (centres unmarked) [PVZF0084] | – | – | 71.08 | 146.9 | –
CCc1ccc(CC)c(C2CC(c3ccc(C)cc3)=NC2S(=O)(=O)c2ccccc2C)c1 (centres unmarked) [PVZF0067] | – | – | 32.14 | 34.58 | –
Cc1ccc(C2=NC(S(C)(=O)=O)C(c3ccc(C)cc3)C2)cc1 (centres unmarked) [PVZF0082] | – | – | 87.78 | 172.9 | –
Cc1cc(C(C)C)cc(S(=O)(=O)CC2CCC(S(C)(=O)=O)CC2)c1C (centres unmarked) [SA078] | 87.12 | 95.87 | – | – | –
O=S(=O)(CC1CCC(S(=O)(=O)c2ccccc2)CC1)c1ccccc1 (centres unmarked) [SA049] | 39.58 | 43.7 | – | – | –
CCC(C)(C)c1ccc(S(=O)(=O)CC2CCCC2)cc1 [PVZF2037] | 51.06 | 43.28 | – | – | –
CCc1ccc(C2CC(c3ccc(C)cc3)=NC2S(=O)(=O)c2ccccc2)cc1CC (centres unmarked) [PVZF0066] | – | – | 56.14 | 65.56 | –
Cc1ccccc1S(=O)(=O)CC1CCC(S(C)(=O)=O)CC1 (centres unmarked) [SA059] | 100.9 | 88.99 | – | – | –
CCc1cccc(C2CC(c3ccc(C)cc3)=NC2S(=O)(=O)c2ccccc2C)c1CC (centres unmarked) [PVZF0059] | – | – | 43.94 | 38.46 | –
O=S(=O)(CC1CCC(S(=O)(=O)C2CCCCC2)CC1)c1ccccc1 (centres unmarked) [SA071] | 61.72 | 138.5 | – | – | –
CCc1cccc(C2CC(c3ccccc3)=NC2S(=O)(=O)c2ccccc2)c1CC (centres unmarked) [PVZF0046] | – | – | 47.04 | 54.68 | –
Cc1ccc(C2=NC(S(=O)(=O)c3ccccc3)C(c3ccccc3C)C2)cc1 (centres unmarked) [PVZF0074] | – | – | 79.16 | 96.63 | –
CC1(C)CC(CS(=O)(=O)c2ccc(C(C)(C)C)cc2)CC(C)(C)S1 [PVZF2045] | 65.16 | 66.26 | – | – | –
